“And” between values parts separate entries of the source, which are not always exact repeats. Equal entries are not always repeated. Where two headings read alike, the source gives them in different places.
Tests used:
[1] = test system: central benzodiazepine receptors; experiment: In vitro binding, [3H]-Flumazenil, brain cortex membrane preparation; settings: for IC50: [3H]-Flumazenil (2 nM), 25° C., 45 min, read-out: CBR IC50
Description: (§1) Non-specific binding was determined with Flumazenil (20 μM). In both cases, incubations were terminated by rapid filtration through Whatman GF/B glass fibre. Filters were immediately washed 3 times with 5 mL ice-cold 50 mM Tris/HCl at pH 7.4. Filters were counted in a β-scintillation counter (Packard) to measure the amount of bound radioactivity. The IC50 of the compounds for the peripheral benzodiazepine binding site and the central benzodiazepine receptor were calculated using Kell 6 software.

[2] = biological target: T1, peripheral benzodiazepine binding site (Rattus norvegicus, UniProt P16257); experiment: In vitro binding, [3H]-PK11195, kidney membrane preparation; settings: [3H]-PK11195 (2 nM), 4° C., 1 h
T1 construct: diluted kidney membrane preparation (200 μg); from tissue; host or cells: kidney membrane preparation
Description: Non-specific binding was determined with PK11195 (10 μM).
as §1

[3] = Biodistribution of 18F-labelled tracers in rats; assay type: in vivo; settings: SD rats; for Biodistribution: Adrenals / Biodistribution: Bladder / Biodistribution: Blood / Biodistribution: Bone / Biodistribution: Brain / Biodistribution: GIT / Biodistribution: Heart / Biodistribution: Kidney / Biodistribution: Liver / Biodistribution: Lungs / Biodistribution: Muscle / Biodistribution: Olfactory bulbs / Biodistribution: Pancreas / Biodistribution: Skin / Biodistribution: Spleen / Biodistribution: Stomach / Biodistribution: Testes / Biodistribution: Thymus / Biodistribution: Thyroid: decay correction not stated
Description: [^18F]Fluoride, in the form of H^18F, was produced by the ^18O(p,n)^18F nuclear reaction by bombardment of ^18O-enriched water target. The aqueous [^18F]fluoride solution was added to a 2.5-mL wheaton vial containing dry acetonitrile (1 mL), Kryptofix 2.2.2 (5 mg, 13.3 μmol) and potassium carbonate (2 mg, 14.5 μmol). The solvent was evaporated under a stream of nitrogen at 90° C. with a reducing vacuum. This azeotropic drying was repeated twice by further addition of acetonitrile (2×1 mL). The tosylate precursor 2-(2-(4-(2-tosylethoxy)phenyl)-6-chloroimidazo[1,2-a]pyridin-3-yl)-N,N-diethylacetamide (2 mg, 3.6 μmol) was dissolved in acetonitrile (1 ml) and added to the dried K222.K2CO3.KF complex. Stirring and heating at 90° C. continued for 10 to 15 mins before the reaction mixture was diluted with mobile phase and purified by reverse phase HPLC on an Alltech Alltima, C18, 10μ, 250×22 mm column eluting at 10 mLs/min with 45% acetonitrile, 55% water with 0.1% TFA.
The biodistribution of PBR132* was undertaken in SD rats and analysis up to 4 h p.i. in the brain and peripheral tissues was performed. The specificity and selectivity of the tracer were assessed by pre-treatment with PBR and Central benzodiazepine receptor (CBR) specific ligands (1 mg/kg) 5 min prior to injection of PBR132*.
The biodistribution of PBR 147* was performed in SD rats and brain and peripheral tissues were analysised at 15, 30 min, 1, and 4 h p.i. The specificity and selectivity of the tracer was assessed by pre-treatment of the animals with the PBR ligands PK11195 and Ro 5-4864 and with Flumazenil for CBR at 1 mg/kg 5 min prior to injection of PBR 147*
The biodistribution of PBR102* and PBR111* were performed in SD rats and brain and peripheral tissues analysed at 15, 30 min, 1, and 4 h p.i. The specificity and selectivity of the tracers were assessed by pre-treatment with the PBR ligands PK11195 and Ro 5-4864 and with Flumazenil for CBR at 1 mg/kg 5 min prior to injection of the corresponding tracers.
The specificity and selectivity of the tracers were assessed by pre-treatment with the PBR ligands PK11195 and Ro 5-4864 and with Flumazenil for CBR at 1 mg/kg 5 min prior to injection of the corresponding tracers.

**Q.** For `CCN(CC)C(=O)Cc1c(-c2ccc(OCCCF)cc2)nc2c(Cl)cc(Cl)cn12` [PBR 130, 2-(2-(4-(3-fluoropropoxy)phenyl)-6,8-dichloroimidazo[1,2-a]pyridin-3-yl)-N,N-diethylacetamide], which chromatographic logP (LogP HPLC) is on record?
**A.** 3.43 ± 0.1

**Q.** What about the “CBR, % @ 10^−5M” value ([1]; @ 10^−5M, [3H]-Flumazenil) of the same compound?
**A.** 50% @ 10^−5M

**Q.** What about the IC50 [1] of the same compound?
**A.** > 5000 nM

**Q.** And the IC50 ([2]; PBR IC50 (nM))?
**A.** 20 nM

**Q.** What does the source list for `CNC(=O)Cc1c(-c2ccc(OCCF)cc2)nc2ccc(Cl)cn12` [PBR106, 2-(2-(4-(2-fluoroethoxy)phenyl)-6-chloroimidazo[1,2-a]pyridin-3-yl)-N-methylacetamide]?
**A.** chromatographic logP (LogP HPLC): 2.05 ± 0.07; IC50 [1]: 548 nM; IC50 ([2]; PBR IC50 (nM)): 170 nM

**Q.** What does the source list for `CCN(CC)C(=O)Cc1c(-c2ccc(OCCF)cc2)nn2c(C)cc(C)nc12` [PBR099, 2-(2-(4-(2-fluoroethoxy)phenyl)-5,7-dimethylpyrazolo[1,5-a]pyrimidin-3-yl)-N,N-diethylacetamide]?
**A.** chromatographic logP (LogP HPLC): 2.54 ± 0.08; IC50 [1]: > 5000 nM; Biodistribution: Adrenals ([3]; 15 min): 5.64 ± 0.53 % ID/g; Biodistribution: Bladder ([3]; 15 min): 0.46 ± 0.18 % ID/g; Biodistribution: Blood ([3]; 15 min): 0.23 ± 0.03 % ID/g; Biodistribution: Bone ([3]; 15 min): 0.64 ± 0.03 % ID/g; Biodistribution: Brain ([3]; 15 min): 0.21 ± 0.01 % ID/g; Biodistribution: GIT ([3]; 15 min): 0.83 ± 0.09 % ID/g; Biodistribution: Heart ([3]; 15 min): 5.86 ± 0.44 % ID/g; Biodistribution: Kidney ([3]; 15 min): 3.9 % ID/g and 3.85 ± 0.24 % ID/g; Biodistribution: Liver ([3]; 15 min): 0.63 ± 0.06 % ID/g; Biodistribution: Lungs ([3]; 15 min): 14.55 ± 1.35 % ID/g; Biodistribution: Muscle ([3]; 15 min): 0.65 ± 0.14 % ID/g; Biodistribution: Olfactory bulbs ([3]; 15 min): 0.35 % ID/g and 0.35 ± 0.03 % ID/g; Biodistribution: Pancreas ([3]; 15 min): 1.70 ± 0.13 % ID/g; Biodistribution: Skin ([3]; 15 min): 0.35 ± 0.04 % ID/g; Biodistribution: Spleen ([3]; 15 min): 4.60 ± 0.29 % ID/g; Biodistribution: Stomach ([3]; 15 min): 0.45 ± 0.18 % ID/g; Biodistribution: Testes ([3]; 15 min): 0.184 ± 0.006 % ID/g; Biodistribution: Thymus ([3]; 15 min): 0.62 ± 0.17 % ID/g; Biodistribution: Thyroid ([3]; 15 min): 6.94 ± 1.04 % ID/g; Biodistribution: Adrenals ([3]; 30 min): 6.6 % ID/g and 6.56 ± 1.20 % ID/g; Biodistribution: Bladder ([3]; 30 min): 0.42 ± 0.08 % ID/g; Biodistribution: Blood ([3]; 30 min): 0.16 ± 0.01 % ID/g; Biodistribution: Bone ([3]; 30 min): 0.70 ± 0.02 % ID/g; Biodistribution: Brain ([3]; 30 min): 0.14 ± 0.01 % ID/g; Biodistribution: GIT ([3]; 30 min): 0.90 ± 0.03 % ID/g; Biodistribution: Heart ([3]; 30 min): 5.59 ± 0.26 % ID/g; Biodistribution: Kidney ([3]; 30 min): 3.62 ± 0.53 % ID/g; Biodistribution: Liver ([3]; 30 min): 0.54 ± 0.18 % ID/g; Biodistribution: Lungs ([3]; 30 min): 8.82 ± 0.53 % ID/g; Biodistribution: Muscle ([3]; 30 min): 0.55 ± 0.03 % ID/g; Biodistribution: Olfactory bulbs ([3]; 30 min): 0.28 ± 0.03 % ID/g; Biodistribution: Pancreas ([3]; 30 min): 1.33 ± 0.16 % ID/g; Biodistribution: Skin ([3]; 30 min): 0.49 ± 0.02 % ID/g; Biodistribution: Spleen ([3]; 30 min): 4.71 ± 0.61 % ID/g; Biodistribution: Stomach ([3]; 30 min): 0.32 ± 0.04 % ID/g; Biodistribution: Testes ([3]; 30 min): 0.209 ± 0.007 % ID/g; Biodistribution: Thymus ([3]; 30 min): 0.66 ± 0.14 % ID/g; Biodistribution: Thyroid ([3]; 30 min): 7.99 ± 1.83 % ID/g; Biodistribution: Adrenals ([3]; 60 min): 7.82 ± 1.73 % ID/g; Biodistribution: Bladder ([3]; 60 min): 0.72 ± 0.17 % ID/g; Biodistribution: Blood ([3]; 60 min): 0.14 ± 0.01 % ID/g; Biodistribution: Bone ([3]; 60 min): 0.79 ± 0.03 % ID/g; Biodistribution: Brain ([3]; 60 min): 0.13 ± 0.02 % ID/g; Biodistribution: GIT ([3]; 60 min): 1.31 ± 0.08 % ID/g; Biodistribution: Heart ([3]; 60 min): 6.45 ± 0.43 % ID/g; Biodistribution: Kidney ([3]; 60 min): 3.53 ± 0.24 % ID/g; Biodistribution: Liver ([3]; 60 min): 0.40 ± 0.05 % ID/g; Biodistribution: Lungs ([3]; 60 min): 5.66 ± 0.56 % ID/g; Biodistribution: Muscle ([3]; 60 min): 0.43 ± 0.02 % ID/g; Biodistribution: Olfactory bulbs ([3]; 60 min): 0.29 ± 0.03 % ID/g; Biodistribution: Pancreas ([3]; 60 min): 1.08 ± 0.19 % ID/g; Biodistribution: Skin ([3]; 60 min): 0.48 ± 0.04 % ID/g; Biodistribution: Spleen ([3]; 60 min): 4.51 ± 0.70 % ID/g; Biodistribution: Stomach ([3]; 60 min): 0.41 ± 0.09 % ID/g; Biodistribution: Testes ([3]; 60 min): 0.266 ± 0.019 % ID/g; Biodistribution: Thymus ([3]; 60 min): 0.77 ± 0.12 % ID/g; Biodistribution: Thyroid ([3]; 60 min): 9.90 ± 3.67 % ID/g; Biodistribution: Bladder ([3]; 4 hours): 0.80 ± 0.11 % ID/g; Biodistribution: Blood ([3]; 4 hours): 0.16 ± 0.01 % ID/g; Biodistribution: Bone ([3]; 4 hours): 1.0 % ID/g and 1.07 ± 0.05 % ID/g; Biodistribution: Brain ([3]; 4 hours): 0.15 ± 0.01 % ID/g; Biodistribution: GIT ([3]; 4 hours): 1.90 ± 0.09 % ID/g; Biodistribution: Heart ([3]; 4 hours): 4.29 ± 0.86 % ID/g; Biodistribution: Kidney ([3]; 4 hours): 2.4 % ID/g and 2.41 ± 0.40 % ID/g; Biodistribution: Liver ([3]; 4 hours): 0.29 ± 0.04 % ID/g; Biodistribution: Lungs ([3]; 4 hours): 2.80 ± 0.51 % ID/g; Biodistribution: Muscle ([3]; 4 hours): 0.30 ± 0.05 % ID/g; Biodistribution: Olfactory bulbs ([3]; 4 hours): 0.31 % ID/g and 0.31 ± 0.05 % ID/g; Biodistribution: Pancreas ([3]; 4 hours): 0.56 ± 0.09 % ID/g; Biodistribution: Skin ([3]; 4 hours): 0.65 ± 0.05 % ID/g; Biodistribution: Spleen ([3]; 4 hours): 2.88 ± 0.56 % ID/g; Biodistribution: Stomach ([3]; 4 hours): 0.79 ± 0.16 % ID/g; Biodistribution: Testes ([3]; 4 hours): 0.349 ± 0.011 % ID/g; Biodistribution: Thymus ([3]; 4 hours): 0.91 ± 0.05 % ID/g; Biodistribution: Thyroid ([3]; 4 hours): 7.97 ± 1.37 % ID/g; Blood activity level / concentration in the blood over the 4 h study period ([3]; throughout 15 min to 4 h): 0.23%

**Q.** Which chromatographic logP (LogP HPLC) does the source give for `CN(C(=O)Cc1c(-c2ccc(OCCF)cc2)nc2ccc(Cl)cn12)c1ccccc1` [PBR 149, 2-(2-(4-(2-fluoroethoxy)phenyl)-6-chloroimidazo[1,2-a]pyridin-3-yl)-N-methyl-N-phenylacetamide] here?
**A.** 3.57 ± 0.11

**Q.** And the IC50 [1]?
**A.** 357 nM

**Q.** And the IC50 ([2]; PBR IC50 (nM))?
**A.** 4.7 nM

**Q.** With `CC(C)(C)c1ccc(-c2nc3ccc(F)nn3c2CNC(=O)c2ccccc2)cc1` [PBR 139, N-((2-(4-tert-butylphenyl)-6-fluoroimidazo[1,2-b]pyridazin-3-yl)methyl)benzamide] as the compound, how does the chromatographic logP (LogP HPLC) read?
**A.** 4.23 ± 0.13

**Q.** And the IC50 [1]?
**A.** 2620 nM

**Q.** What about the IC50 ([2]; read-out: PBR IC50) of the same compound?
**A.** 800 nM

**Q.** What does the source list for `CCN(CC)C(=O)Cc1c(-c2ccc(OCCF)cc2)nc2c(Cl)cc(Cl)cn12` [PBR 136, 2-(2-(4-(2-fluoroethoxy)phenyl)-6,8-dichloroimidazo[1,2-a]pyridin-3-yl)-N,N-diethylacetamide]?
**A.** chromatographic logP (LogP HPLC): 2.99 ± 0.09; IC50 [1]: 588 nM; IC50 ([2]; PBR IC50 (nM)): 17.6 nM

Reference: patent US20100209345A1, “Fluorinated Ligands for Targeting Peripheral Benzodiazepine Receptors” (Australian Nuclear Science & Technology Organisation, priority 2006, published 2010)
